Data on 14 compounds can be found in patent publication US20250018049A1, “COMPOUNDS FOR DEGRADING CYCLIN-DEPENDENT KINASE 2 VIA UBIQUITIN PROTEOSOME PATHWAY” (NIKANG THERAPEUTICS, INC., priority 2020, published 2025).

Assay [1] addresses T1, CDK2 (Homo sapiens, UniProt P24941). Kind of assay: Phospho-Rb HTRF measurement in OVCAR3 cells (inhibition of CDK2). The arrangement: High-Throughput Measurement of Cellular Endogenous CDK2; endogenous in cells; host or cells: OVCAR3. The conditions noted are these: pRB(S807/811) assay, 24 h compound treatment. The assay is classed as cell-based. On the procedure: Phosphorylation of RB protein at S780 and S807/811 were measured using HTRF phospho-RB cellular kits (Cat #64RBS780PEG and 64RBS807PEG) from Cisbio.
On Day 1, OVCAR3 or KYSE520 cells were seeded into 96-well tissue-culture treated plates at 20,000 cells/well in 200 μL and incubated overnight at 37° C. in CO2 atmosphere. On Day 2, the cells were treated with test compounds at concentrations from 0.3 to 10,000 nM using HP D300 digital dispenser. Twenty-four hours after compound treatment, cell culture media was removed by flicking the plate and tapping the plate against clean paper towel. Immediately 30 μL 1× lysis buffer was supplemented from the kit and the plate was incubated at room temperature on shaker for 30 min. After homogenization by pipetting up and down, 8 μL cell lysate from 96-well cell culture plate was transferred to 384-well small volume white detection plate. 2 μL premixed detection solution was added and the plate was covered with sealer. To prepare the detection solution, d2 conjugated-phospho-RB antibody and Eu-cryptate conjugated phosphor-RB antibody were diluted into detection buffer following manufacturer's instruction. Detection plates were incubated for 4 h at room temperature and read on ClarioStar (BMG Labtech) in TR-FRET mode (665 nM and 620 nM). The TR-FRET ratio (665 nM/620 nM) was plotted against the compound concentration and normalized to DMSO controls. Half maximal inhibition concentration (IC50) values are calculated with a four-parameter logistic fit using GraphPad Prism (version 8; La Jolla, CA).

Assay [2] has as its target T1, CDK2. Briefly: NanoBRET CDK2 engagement assay. Format: cell-based. The arrangement: expressed in transfected cells. The settings on record: OVCAR3 cells with stable CDK2-Luciferase vector, 24 hours treatment. How it is done: OVCAR3 cells with stable transfection of CDK2-Luciferase vector were seeded into 96-well plate at a density of 20,000 cells per well, 50 μL Opti-MEM medium supplemented with 1% FBS. Following morning, cells were treated with compounds of the disclosure, with starting concentration at 3 μM and ½ log dilution down to 0.3 nM for 24 hours at 37° C. DMSO treatment serves as control. Compound engagement was then measured using NanoBRE™ Kinase Kit from Promega (Part Number: CS1810C122, NanoBRET™ TE Kinase Kit #10, 1K) following manufacturer's instruction. For 24 hours treatment, tracer was added only for the last 2 hours. Briefly, 2.5 μL of complete 20× NanoBRET Tracer was added to the cells in suspension. Immediately prior to BRET measurements, prepare 3× Complete NanoBRET® Nano-Glo® Substrate in Opti-MEM without serum and phenol red. Without any delay, 25 μL per well of 3× Complete NanoBRET™ Nano-Glo® Substrate for a 96-well plate was added and mixed well. Signal was then read on a CLARIOstar® plate reader (measure donor emission (e.g., 450 nm) and acceptor emission (e.g., 610 nm or 630 nm) using a NanoBRET™-compatible luminometer. Target engagement was calculated with DMSO treatment as 100% signal, and IC50 was calculated by GraphPad Prism 9.
Background: BRET reads energy transfer from a luciferase to a nearby fluorophore.

Usually IC50 stands for the concentration at which inhibition is half-maximal. Read a high IC50 as weaker potency in that assay. For the compound `O=C1CCC(N2C(=O)c3cc(F)c(N4CCN(Cc5cccc(S(=O)(=O)N6CCC(Nc7ncc8cc(C(F)F)c(=O)n(C9CCCC9)c8n7)CC6)c5)CC4)cc3C2=O)C(=O)N1` (stereo not shown) [Compound 45, 5-(4-(3-((4-((8-cyclopentyl-6-(difluoromethyl)-7-oxo-7,8-dihydropyrido[2,3-d]pyrimidin-2-yl)-amino)piperidin-1-yl)sulfonyl)-benzyl)piperazin-1-yl)-2-(2,6-dioxopiperidin-3-yl)-6-fluoro-isoindoline-1,3-dione], the IC50 at CDK2 [1] came to 267 nM; on CDK2 [2], 378 nM.

On to `N#Cc1cc2cnc(NC3CCN(S(=O)(=O)c4cccc(CN5CCN(c6cc7c(cc6F)C(=O)N(C6CCC(=O)NC6=O)C7=O)CC5)c4)CC3)nc2n(C2CCCC2)c1=O` (stereo not shown) [Compound 46, 8-cyclopentyl-2-((1-((3-((4-(2-(2,6-dioxopiperidin-3-yl)-6-fluoro-1,3-dioxoisoindolin-5-yl)piperazin-1-yl)methyl)phenyl)sulfonyl)piperidin-4-yl)-amino)-7-oxo-7,8-dihydropyrido[2,3-d]-pyrimidine-6-carbonitrile], for which the values for the IC50 at CDK2 [1] and against CDK2 [2] were 2920 nM and 2160 nM, respectively.

With `O=C1CCC(N2C(=O)c3cc(F)c(N4C5CCC4CN(Cc4cccc(S(=O)(=O)N6CCC(Nc7ncc8ccc(=O)n(C9CCCC9)c8n7)CC6)c4)C5)cc3C2=O)C(=O)N1` (stereo not shown) [Compound 47, 5-(3-(3-((4-((8-cyclopentyl-7-oxo-7,8-dihydro-pyrido[2,3-d]pyrimidin-2-yl)amino)piperidin-1-yl)sulfonyl)benzyl)-3,8-diazabicyclo[3.2.1]octan-8-yl)-2-(2,6-dioxopiperidin-3-yl)-6-fluoro-isoindoline-1,3-dione], the IC50 on CDK2 [1] stood at 4030 nM; at CDK2 [2], 590 nM.

For the compound `O=C1CCC(N2C(=O)c3cc(F)c(N4CC5CCC(C4)N5Cc4cccc(S(=O)(=O)N5CCC(Nc6ncc7ccc(=O)n(C8CCCC8)c7n6)CC5)c4)cc3C2=O)C(=O)N1` (stereo not shown) [Compound 49, 5-(8-(3-((4-((8-cyclopentyl-7-oxo-7,8-dihydro-pyrido[2,3-d]pyrimidin-2-yl)amino)piperidin-1-yl)sulfonyl)benzyl)-3,8-diazabicyclo[3.2.1]octan-3-yl)-2-(2,6-dioxopiperidin-3-yl)-6-fluoroi-soindoline-1,3-dione], the figures for the IC50 against CDK2 [1] and against CDK2 [2] were 836 nM and 272 nM, respectively.

Consider `O=C1CCC(N2Cc3cc(N4C5CCC4CN(Cc4cccc(S(=O)(=O)N6CCC(Nc7ncc8ccc(=O)n(C9CCCC9)c8n7)CC6)c4)C5)ccc3C2=O)C(=O)N1` (stereo not shown) [Compound 52, 3-(5-(3-(3-((4-((8-cyclopentyl-7-oxo-7,8-dihydropyrido[2,3-d]pyrimidin-2-yl)amino)-piperidin-1-yl)sulfonyl)benzyl)-3,8-diazabicyclo-[3.2.1]octan-8-yl)-1-oxoisoindolin-2-yl)piperidine-2,6-dione], for which the results for the IC50 against CDK2 [1] and against CDK2 [2] were 1420 nM and 499 nM, respectively.

As to `CO[C@H]1CN(S(=O)(=O)c2cccc(CN3CCN(c4cc5c(cc4F)C(=O)N(C4CCC(=O)NC4=O)C5=O)CC3)c2)CC[C@@H]1Nc1ncc2ccc(=O)n(C3CCCC3)c2n1` (stereo partly drawn) [Compound 64, 5-(4-(3-(((3S,4S)-4-((8-cyclopentyl-7-oxo-7,8-dihydropyrido[2,3-d]pyrimidin-2-yl)amino)-3-methoxypiperidin-1-yl)sulfonyl)benzyl)piperazin-1-yl)-2-(2,6-dioxopiperidin-3-yl)-6-fluoro-isoindoline-1,3-dione], the IC50 amounted to 7940 nM against CDK2 [1] and 3040 nM on CDK2 [2].

For the compound `O=C1CCC(N2Cc3cc(CN4CC(Oc5cccc(S(=O)(=O)N6CCC(Nc7ncc8ccc(=O)n(C9CCCC9)c8n7)CC6)c5)C4)ccc3C2=O)C(=O)N1` (stereo not shown) [Compound 67, 3-(5-((3-(3-((4-((8-cyclopentyl-7-oxo-7,8-dihydro-pyrido[2,3-d]pyrimidin-2-yl)amino)piperidin-1-yl)sulfonyl)phenoxy)azetidin-1-yl)methyl)-1-oxoisoindolin-2-yl)piperidine-2,6-dione], the IC50 was determined as 27 nM on CDK2 [1] and 150 nM against CDK2 [2].

In the case of `Cn1nc(N2CCC(=O)NC2=O)c2ccc(C3CCN(Cc4cccc(S(=O)(=O)N5CCC(Nc6ncc7ccc(=O)n(C8CCCC8)c7n6)CC5)c4)CC3)cc21` [Compound 71, 1-(6-(1-(3-((4-((8-cyclopentyl-7-oxo-7,8-dihydropyrido[2,3-d]pyrimidin-2-yl)amino)-piperidin-1-yl)sulfonyl)-benzyl)piperidin-4-yl)-1-methyl-1H-indazol-3-yl)dihydropyrimidine-2,4(1H,3H)-dione], the IC50 against CDK2 [1] is 10.3 nM; against CDK2 [2], 167 nM.

As to `Cn1c(=O)n(C2CCC(=O)NC2=O)c2cccc(C3CCN(C4CN(c5cccc(S(=O)(=O)N6CCC(Nc7ncc8ccc(=O)n(C9CCCC9)c8n7)CC6)c5)C4)CC3)c21` (stereo not shown) [Compound 72, 3-(4-(1-(1-(3-((4-((8-cyclopentyl-7-oxo-7,8-dihydropyrido[2,3-d]pyrimidin-2-yl)amino)-piperidin-1-yl)sulfonyl)phenyl)azetidin-3-yl)piperidin-4-yl)-3-methyl-2-oxo-2,3-dihydro-1H-benzo[d]imidazol-1-yl)piperidine-2,6-dione], the IC50 against CDK2 [1] was 355 nM; at CDK2 [2], 425 nM.

With `O=C(COc1cccc2c1C(=O)N(C1CCC(=O)NC1=O)C2=O)NCCOCCOCCN1CCN(S(=O)(=O)N2CCC(Nc3ncc4ccc(=O)n(C5CCCC5)c4n3)CC2)CC1` (stereo not shown) [compound 2, N-(2-(2-(2-(4-((4-((8-cyclopentyl-7-oxo-7,8-dihydropyrido[2,3-d]pyrimidin-2-yl)amino)-piperidin-1-yl)sulfonyl)piperazin-1-yl)-ethoxy)ethoxy)ethyl)-2-((2-(2,6-dioxo-piperidin-3-yl)-1,3-dioxoisoindolin-4-yl)-oxy)acetamide], the figures for the IC50 at CDK2 [1] and on CDK2 [2] were 1280 nM and 1310 nM, respectively.

`O=C(COc1cccc2c1C(=O)N(C1CCC(=O)NC1=O)C2=O)NCCOCCN1CCN(S(=O)(=O)N2CCC(Nc3ncc4ccc(=O)n(C5CCCC5)c4n3)CC2)CC1` (stereo not shown) [compound 3, N-(2-(2-(4-((4-((8-cyclopentyl-7-oxo-7,8-dihydropyrido[2,3-d]pyrimidin-2-yl)amino)-piperidin-1-yl)sulfonyl)piperazin-1-yl)-ethoxy)ethyl)-2-((2-(2,6-dioxopiperidin-3-yl)-1,3-dioxoisoindolin-4-yl)oxy)acetamide]: the IC50 at CDK2 [1] came out at 2670 nM; against CDK2 [2], 3040 nM.

On to `CN1C(=O)CCC(N2C(=O)c3cccc(OCC(=O)NCCOCCN4CCN(S(=O)(=O)N5CCC(Nc6ncc7ccc(=O)n(C8CCCC8)c7n6)CC5)CC4)c3C2=O)C1=O` (stereo not shown) [compound 5, N-(2-(2-(4-((4-((8-cyclopentyl-7-oxo-7,8-dihydropyrido[2,3-d]pyrimidin-2-yl)amino)-piperidin-1-yl)sulfonyl)piperazin-1-yl)-ethoxy)ethyl)-2-((2-(1-methyl-2,6-dioxo-piperidin-3-yl)-1,3-dioxoisoindolin-4-yl)oxy)acetamide], for which the values for the IC50 at CDK2 [1] and against CDK2 [2] were 5860 nM and 4110 nM, respectively.

As for `O=C(COc1cccc2c1C(=O)N(C1CCC(=O)NC1=O)C2=O)NCCOCCOCCOCCOCCN1CCN(S(=O)(=O)N2CCC(Nc3ncc4ccc(=O)n(C5CCCC5)c4n3)CC2)CC1` (stereo not shown) [compound 6, N-(14-(4-((4-((8-cyclopentyl-7-oxo-7,8-dihydro-pyrido[2,3-d]pyrimidin-2-yl)amino)-piperidin-1-yl)sulfonyl)piperazin-1-yl)-3,6,9,12-tetraoxatetradecyl)-2-((2-(2,6-dioxopiperidin-3-yl)-1,3-dioxoisoindolin-4-yl)oxy)acetamide], the results for the IC50 at CDK2 [1] and at CDK2 [2] were 2250 nM and 1670 nM, respectively.

Consider `O=C1CCC(N2C(=O)c3ccc(N4CC(Oc5ccc(S(=O)(=O)N6CCC(Nc7ncc8ccc(=O)n(C9CCCC9)c8n7)CC6)cc5)C4)cc3C2=O)C(=O)N1` (stereo not shown) [compound 7, 5-(3-(4-((4-((8-cyclopentyl-7-oxo-7,8-dihydro-pyrido[2,3-d]pyrimidin-2-yl)amino)piperidin-1-yl)sulfonyl)phenoxy)azetidin-1-yl)-2-(2,6-dioxopiperidin-3-yl)isoindoline-1,3-dione], for which the IC50 against CDK2 [1] was found to be 1120 nM; on CDK2 [2], 99.9 nM.
